The text below walks through data of patent US6440952B2, “Phosphono-carboxylate compounds for treating amyloidosis” (Queen's University at Kingston, priority 1999, dated 2002).

Each structure is given as a SMILES string. Structures can show the parent of a compound that is named as a salt.

In one data set the target is T1, Aβ peptide (Homo sapiens, UniProt P05067).
T1 construct: Aβ is a 40 amino acid protein associated with Alzheimer's disease; made in house; host or cells: chemical solid-phase peptide synthesis (no expression host)
The experiment in a line: in vitro circular dichroism (CD) assay for formation of β-sheet secondary structure. To be noted: Aβ peptide with test compound in 10 mM Tris-HCl pH 7, incubated 0 or 24 hours at 37° C. In kind it is biochemical. The text has this: It is known that amyloidogenic peptides or proteins which have formed amyloid deposits or plaques have a significant amount of β-sheet secondary structure, while the unaggregated peptide or protein generally has less β-sheet structure. It is believed that the ability of a candidate therapeutic compound to prevent the formation of β-sheet secondary structure in vitro may be correlated with the ability of the compound to inhibit amyloidogenesis in vivo. Accordingly, phosphonate compounds were assayed for ability to prevent the formation of β-sheet secondary structure in assay systems including an in vitro circular dichroism (CD) assay.
Aβ is a 40 amino acid protein associated with Alzheimer's disease. Aβ peptide was prepared and purified as described in Fraser, P. E. et al., Biochemistry 31, 10716 (1992). Briefly, the peptide was synthesized by standard solid-phase techniques and purified by HPLC according to well known procedures.
All CD experiments were performed on a commercially available instrument. The cell is was maintained at 25° C. using a circulating water bath. Computer-averaging of traces was performed to improve signal-to-noise ratios. The solvent signal was subtracted. CD experiments were performed for each test compound according to the following procedure:
A stock solution of purified peptide was made by dissolving the peptide in phosphate-buffered saline (PBS) to a concentration of 2 mg/ml. A test solution was made for each potential therapeutic agent (test compound) as shown below:
The control sample had no test compound, and a total of 5 μl distilled water was added. The test solution was incubated for either 0 or 24 hours at 37° C. before CD measurement. The size minimum in the CD spectrum at 218 nm is believed to be diagnostic of the presence of β-pleated sheet. Comparison of the minimum at 218 nm of a candidate compound, compared to the minimum of a control sample, is believed to be indicative of the ability of the candidate compound to inhibit the formation of β-pleated sheet.

Another data set deals with T2, amyloid peptide (Homo sapiens, UniProt P05067).
T2 construct: Aβ is a 40 amino acid protein associated with Alzheimer's disease
The experiment in a line: amyloid peptide solubility assay (overnight incubation, centrifugation, determination of soluble peptide). To be noted: compound and amyloid peptide incubated together overnight, preliminary result, buffer composition may have interfered. In kind it is biochemical.

Data set [1] concerns cortical/hippocampal neuronal cultures. The experiment in a line: neurotoxicity in cortical/hippocampal neuronal cultures. To be noted: concentrations ranging from 10^−7M to 10^−4 M. In kind it is cell-based.

T1 sequence (P05067 672-711 limits assumed): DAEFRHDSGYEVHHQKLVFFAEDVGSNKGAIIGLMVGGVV
T2 sequence (P05067 672-711 limits assumed): as above

As to `O=C(O)CCP(=O)(O)O` [2 carboxyethylphosphonic acid], the “reduction of β-sheet formation as measured by the CD assay (minimum at 218 nm versus control)” value (“reduction of β-sheet formation” for short) at Aβ peptide is on record as “lower ability to prevent β-pleated sheet formation”. Regarding `O=C(O)CP(=O)(O)O` [Phosphonoacetate], on Aβ peptide, the “reduction of β-sheet formation” value is “active”. `O=C(O)P(=O)(O)O` [phosphonoformate trisodium salt, Trisodium phosphonoformate]: the “effect on amyloid peptide solubility” value on amyloid peptide was “little effect on amyloid peptide solubility”. Moreover, in data set [1], the neurotoxicity result is on record as “no significant toxicity”. In addition, the “reduction of β-sheet formation” value at Aβ peptide was “significantly and reproducibly reduce the amount of β-sheet formation”.
